From PubChem BioAssay (NCI)
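Assay format: 96-well plates, 48-hour exposure. GI50 is the concentration that inhibits growth by half. At the TGI there is no net growth.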

System: MDA-MB-468 breast
Test: DTP human tumour cell line panel, 48 h

Cc1ccc2c(c1)O/C(=C\c1ccc([N+](=O)[O-])o1)C2=O
GI50: 1560 nM | TGI: 3.5 µM

COc1cc(NCc2ccccc2O)c2ncccc2c1
GI50: 15400 nM | TGI: 50.4 µM

Oc1c(I)cc(-c2nc3ccccc3s2)cc1CN(Cc1ccccn1)Cc1ccccn1
GI50: 531 nM | TGI: 5.25 µM

Cc1cc(C)cc(Nc2ccc([N+](=O)[O-])c(NCCN3CCOCC3)n2)c1
GI50: 0.419 nM

CNC(=O)OC1C(O[C@H]2C[C@H]3[C@@H]4CC=C5C[C@@H](O)CC[C@]5(C)[C@H]4CC[C@]3(C)[C@H]2[C@H](C)C(=O)CCC(C)C)OCC(O)C1OC1OCC(O)C(O)C1OC(=O)c1ccc(OC)cc1 (some centres not stated)
GI50: 27 nM | TGI: 2.96 µM

COc1ccc2c(c1)cn1c3ccc(O)cc3[nH]c(=O)c21
GI50: 236 nM | TGI: 1.09 µM

O=S(=O)(NCCNc1cc(-c2cn(-c3ccccc3)nc2-c2cccc(O)c2)ccn1)c1ccc(Cl)cc1
GI50: 2780 nM | TGI: 7.66 µM

COc1cc(C2=NN(c3ccc(S(N)(=O)=O)cc3)C(c3ccc(Cl)cc3)C2)cc(OC)c1OC (configuration not stated)
GI50: 2880 nM | TGI: > 100 µM

COc1cc(-c2cc(/C=C3\C(=O)Nc4ccccc43)[nH]n2)cc(OC)c1OC
GI50: 2880 nM | TGI: 13.4 µM

C(=C\c1nccc2c1[nH]c1ccccc12)/c1ccccc1
GI50: 2040 nM | TGI: 7.91 µM

CS(=O)(=O)CCn1c(=O)c(Oc2ccc(F)cc2F)cc2cnc(NC3CCOCC3)nc21
GI50: > 25000 nM | TGI: > 25 µM

C1=C(c2ccccc2)C(c2ccc(OCCN3CCCCC3)cc2)Oc2ccccc21 (configuration not stated)
GI50: 1540 nM | TGI: 3 µM

O=C(CNc1ncco1)Nc1ccc(S(=O)(=O)c2ccc(NC(=O)CNc3ncco3)cc2)cc1
GI50: 1440 nM | TGI: 3.16 µM

CCO/C=N/C1=C(C#N)C(c2ccc(F)cc2)c2sc3c(C)cccc3c2O1 (configuration not stated)
GI50: 504 nM | TGI: 17.1 µM

CCOC(=O)N[C@H]1CCc2c(Br)c(OC)c(OC)c(OC)c2-c2ccc(SC)c(=O)cc21
GI50: < 10 nM | TGI: 16.8 µM

O=C1C(=O)c2ccccc2C(O)=C1CC=C(Cl)Cl
GI50: 15800 nM | TGI: 59 µM

Cc1cc2c(-c3ccc(NC(=O)[C@H](N)CC(C)(C)C)cc3C)ccnc2[nH]1
GI50: 2730 nM | TGI: 10.6 µM

O=C(Nc1ccccc1O)c1ccc(CNC(=O)c2sccc2Nc2ccnc(C(F)(F)F)c2)cc1
GI50: 2010 nM | TGI: 5.9 µM

Cc1cc(C)n(C(=O)c2nn(-c3ccc(Cl)cc3)cc2O)n1
GI50: 8900 nM | TGI: > 100 µM

COc1ccc(-c2nnc(N3CCN(C(=O)CN4CCN(c5ccc(Cl)cc5)CC4)CC3)nc2-c2ccc(OC)cc2)cc1
GI50: 17900 nM | TGI: 48.3 µM

CC(C)(C)OC(=O)CN1CCc2c(sc3ncnc(N/N=C/c4cccc5ccccc45)c23)C1
GI50: 3900 nM | TGI: 16.3 µM

Nc1ccc2ccc(NS(=O)(=O)N3CCCCC3)cc2c1
GI50: 194 nM | TGI: > 100 µM

NC(=S)N/N=C\c1nccc2c(N)cccc12
GI50: 226 nM | TGI: 0.717 µM

Cc1ccc(C2CC(c3ccc(Nc4nc(NCCO)nc(Nc5ccc(Cl)cc5)n4)cc3)=Nc3c(N)nc(N)nc3N2)cc1 (configuration not stated)
GI50: 1650 nM | TGI: 3.17 µM

C#Cc1cccc(Oc2ccc(NC(=O)CCl)cc2)c1
GI50: 77900 nM | TGI: > 82.5 µM

O=C(O)c1cc(Cc2ccc(O)c(C(=O)O)c2)ccc1O (tested in a mixture with another compound)
GI50: 2570 nM | TGI: 14.4 µM

CCCCCCNc1nc(N2CCOCC2)c2[nH]c(NCCCCCC)nc2n1
GI50: 1380 nM | TGI: 2.7 µM

Cc1cccc2c1O/C(=C\c1ccc([N+](=O)[O-])o1)C2=O
GI50: 1290 nM | TGI: 2.99 µM

COc1ccc(CC(NC(=O)[C@H](C)NC(=O)CN2CCOCC2)C(=O)N[C@@H](Cc2ccccc2)C(=O)[C@@]2(C)CO2)cc1 (some centres not stated)
GI50: 174 nM | TGI: 0.595 µM

[C-]#[N+][C@]12C(=O)[C@H](CCC1(C)C)C(C)(C)[C@H]1C(=O)N(C)c3cccc2c31
GI50: 4020 nM | TGI: > 100 µM

C/C1=C/C(=O)O[C@@H]2C[C@@H](CC[C@H](C)/C=C\C=C\CC1)O[C@@](OCCc1ccccc1)([C@@H]1CSC(=O)N1)C2
GI50: 29.2 nM | TGI: 0.135 µM

Cc1nc2cc(Nc3nc(Nc4ccc(F)cc4)nc(N4CCN(C)CC4)n3)ccc2n1Cc1ccccc1
GI50: 1430 nM | TGI: 3.44 µM

CC(CN1CCN(CC(C)Nc2ccnc3cc(Cl)ccc23)CC1)Nc1ccnc2cc(Cl)ccc12 (configuration not stated)
GI50: 2970 nM | TGI: 9.55 µM

COc1ccc(/C=C/C(=O)c2cc3c(N)c(C(=O)Nc4ccccc4C)sc3nc2C)cc1
GI50: 167 nM | TGI: > 50 µM

CCCCCCCCCCCCCC(=O)C(C)N (configuration not stated)
GI50: 3310 nM | TGI: 9.51 µM

CN1CCN(c2ccc(NC3=C(Cl)C(=O)c4ncccc4C3=O)cc2C#N)CC1
GI50: 414 nM | TGI: 1.9 µM

CN(C)CCCOc1c2ccccc2nc2c1oc1ccc(Cl)cc12
GI50: 2950 nM | TGI: 8.8 µM

C[C@@H](Oc1ccc2[nH]nc(/C=C/c3cnn(CCO)c3)c2c1)c1c(Cl)cncc1Cl
GI50: 1370 nM | TGI: 3.11 µM

CCN(CC)CCOc1ccc2c(c1)C(=O)c1cc(OCCN(CC)CC)ccc1-2
GI50: 2640 nM | TGI: 8.53 µM
